{
  "source": "ChEMBL document CHEMBL5154741",
  "about": "“Antibacterial alkylguanidino ureas: Molecular simplification approach, searching for membrane-based MoA” (Eur J Med Chem, 2022)",
  "key": {"[1]": {"assay": "(§1) Apparent permeability of the compound across bacterial inner membrane mimic PC-phospholipids in PBS buffer at pH 7.4 incubated for 5 hrs by PAMPA based UV-Vis spectrophotometric analysis", "type": "ADME"}, "[2]": {"assay": "as §1, with “hrs in presence of 1,3,3-tris(8-carbamimidamidooctyl)-1-{8-[N'-(cyclopropylmethyl)carbamimidamido]octyl}urea trifluoroacetate salt” for “hrs”"}, "[3]": {"assay": "Apparent permeability of the compound across bacterial inner membrane mimic pure POPG in PBS buffer at pH 7.4 incubated for 5 hrs by PAMPA based UV-Vis spectrophotometric analysis", "type": "ADME"}, "[4]": {"assay": "Apparent permeability of the compound across bacterial inner membrane mimic PC-phospholipids in PBS buffer at pH 7.4 incubated for 5 hrs in presence of 1,3-bis(8-aminooctyl)-1,3-bis(8- carbamimidamidooctyl)urea trifluoroacetate salt by PAMPA based UV-Vis spectrophotometric analysis"}, "[5]": {"assay": "as §1, with “hrs in presence of 1,1-bis({6-[N'-(cyclopropylmethyl)carbamimidamido]hexyl})-3-{8-[N'-(cyclopropylmethyl)carbamimidamido]octyl}-3-octylurea” for “hrs”"}, "[6]": {"assay": "Apparent permeability of the compound across bacterial inner membrane mimic POPE/POPG (6:4) in PBS buffer at pH 7.4 incubated for 5 hrs by PAMPA based UV-Vis spectrophotometric analysis", "type": "ADME"}, "[7]": {"assay": "Apparent permeability of the compound across bacterial inner membrane mimic PC-phospholipids in PBS buffer at pH 7.4 incubated for 5 hrs in presence of {8-[N'(cyclopropylmethyl)carbamimidamido]octyl}urea trifluoroacetate salt by PAMPA based UV-Vis spectrophotometric analysis"}, "[8]": {"assay": "Apparent permeability of the compound across bacterial inner membrane mimic PC-phospholipids in PBS buffer at pH 7.4 incubated for 5 hrs in presence of 1,3-bis(8-carbamimidamidooctyl)-1,3-bis({8-[N'-(cyclopropylmethyl)carbamimidamido]octyl})urea by PAMPA based UV-Vis spectrophotometric analysis"}, "[9]": {"assay": "Apparent permeability of the compound across bacterial inner membrane mimic pure POPG in PBS buffer at pH 7.4 incubated for 5 hrs in presence of 1,3-bis(8-carbamimidamidooctyl)-1,3-bis({8-[N'-(cyclopropylmethyl)carbamimidamido]octyl})urea by PAMPA based UV-Vis spectrophotometric analysis"}, "[10]": {"assay": "(§2) Apparent permeability of the compound across bacterial inner membrane mimic pure POPG in PBS buffer at pH 7.4 incubated for 5 hrs in presence of {8-[N'(cyclopropylmethyl)carbamimidamido]octyl}urea trifluoroacetate salt by PAMPA based UV-Vis spectrophotometric analysis"}, "[11]": {"assay": "Apparent permeability of the compound across bacterial inner membrane mimic pure POPG in PBS buffer at pH 7.4 incubated for 5 hrs in presence of 1,1-bis({6-[N'-(cyclopropylmethyl)carbamimidamido]hexyl})-3-{8-[N'-(cyclopropylmethyl)carbamimidamido]octyl}-3-octylurea by PAMPA based UV-Vis spectrophotometric analysis"}, "[12]": {"assay": "Apparent permeability of the compound across bacterial inner membrane mimic pure POPG in PBS buffer at pH 7.4 incubated for 5 hrs in presence of 1,3-bis(8-aminooctyl)-1,3-bis(8- carbamimidamidooctyl)urea trifluoroacetate salt by PAMPA based UV-Vis spectrophotometric analysis"}, "[13]": {"assay": "as §2, with “1,3,3-tris(8-carbamimidamidooctyl)-1-{8-[N'-(cyclopropylmethyl)carbamimidamido]octyl}urea” for “{8-[N'(cyclopropylmethyl)carbamimidamido]octyl}urea”"}, "[14]": {"assay": "Apparent permeability of the compound across bacterial inner membrane mimic POPE/POPG (6:4) in PBS buffer at pH 7.4 incubated for 5 hrs in presence of 1,3-bis(8-carbamimidamidooctyl)-1,3-bis({8-[N'-(cyclopropylmethyl)carbamimidamido]octyl})urea by PAMPA based UV-Vis spectrophotometric analysis"}, "[15]": {"assay": "(§3) Apparent permeability of the compound across bacterial inner membrane mimic POPE/POPG (6:4) in PBS buffer at pH 7.4 incubated for 5 hrs in presence of {8-[N'(cyclopropylmethyl)carbamimidamido]octyl}urea trifluoroacetate salt by PAMPA based UV-Vis spectrophotometric analysis"}, "[16]": {"assay": "Apparent permeability of the compound across bacterial inner membrane mimic POPE/POPG (6:4) in PBS buffer at pH 7.4 incubated for 5 hrs in presence of 1,1-bis({6-[N'-(cyclopropylmethyl)carbamimidamido]hexyl})-3-{8-[N'-(cyclopropylmethyl)carbamimidamido]octyl}-3-octylurea by PAMPA based UV-Vis spectrophotometric analysis"}, "[17]": {"assay": "Apparent permeability of the compound across bacterial inner membrane mimic POPE/POPG (6:4) in PBS buffer at pH 7.4 incubated for 5 hrs in presence of 1,3-bis(8-aminooctyl)-1,3-bis(8- carbamimidamidooctyl)urea trifluoroacetate salt by PAMPA based UV-Vis spectrophotometric analysis"}, "[18]": {"assay": "as §3, with “1,3,3-tris(8-carbamimidamidooctyl)-1-{8-[N'-(cyclopropylmethyl)carbamimidamido]octyl}urea” for “{8-[N'(cyclopropylmethyl)carbamimidamido]octyl}urea”"}},
  "data": [
    {"compound": "O=C(N[C@H](CO)[C@H](O)c1ccc([N+](=O)[O-])cc1)C(Cl)Cl", "note": "[CHLORAMPHENICOL]", "values": [
      {"measurement": "Papp at 5 h", "setting": "[1]", "value": 0.54, "unit": "×10⁻⁶ cm/s"},
      {"measurement": "Papp at 5 h", "setting": "[2]", "value": 4.67, "unit": "×10⁻⁶ cm/s"},
      {"measurement": "Papp at 5 h", "setting": "[3]", "value": 0.06, "unit": "×10⁻⁶ cm/s"},
      {"measurement": "Papp at 5 h", "setting": "[4]", "value": 3.24, "unit": "×10⁻⁶ cm/s"},
      {"measurement": "Papp at 5 h", "setting": "[5]", "value": 8.73, "unit": "×10⁻⁶ cm/s"},
      {"measurement": "Papp at 5 h", "setting": "[6]", "value": 1.12, "unit": "×10⁻⁶ cm/s"},
      {"measurement": "Papp at 5 h", "setting": "[7]", "value": 0.04, "unit": "×10⁻⁶ cm/s"},
      {"measurement": "Papp at 5 h", "setting": "[8]", "value": 6.12, "unit": "×10⁻⁶ cm/s"},
      {"measurement": "Papp at 5 h", "setting": "[9]", "value": 2.18, "unit": "×10⁻⁶ cm/s"},
      {"measurement": "Papp at 5 h", "setting": "[10]", "value": 0.08, "unit": "×10⁻⁶ cm/s"},
      {"measurement": "Papp at 5 h", "setting": "[11]", "value": 3.39, "unit": "×10⁻⁶ cm/s"},
      {"measurement": "Papp at 5 h", "setting": "[12]", "value": 3.14, "unit": "×10⁻⁶ cm/s"},
      {"measurement": "Papp at 5 h", "setting": "[13]", "value": 3.78, "unit": "×10⁻⁶ cm/s"},
      {"measurement": "Papp at 5 h", "setting": "[14]", "value": 1.39, "unit": "×10⁻⁶ cm/s"},
      {"measurement": "Papp at 5 h", "setting": "[15]", "value": 1.67, "unit": "×10⁻⁶ cm/s"},
      {"measurement": "Papp at 5 h", "setting": "[16]", "value": 6.64, "unit": "×10⁻⁶ cm/s"},
      {"measurement": "Papp at 5 h", "setting": "[17]", "value": 6.11, "unit": "×10⁻⁶ cm/s"},
      {"measurement": "Papp at 5 h", "setting": "[18]", "value": 6.98, "unit": "×10⁻⁶ cm/s"}
    ]}
  ]
}
